Legend:
MDPC-23 cells [1] = assay: Viable cell number (Trypan Blue); format: cell-based; conditions: 24 h
Experimental: (§1) Immortalized odontoblast-like MDPC-23 cell line, frequently used for the evaluation of cytotoxicity of dental materials, was used to analyse the effect of different DMSO concentrations on pulpal cell viability. The cell culturing and methodology followed that described by Aranha et al. (2011). Briefly, DMEM culture medium with different concentrations of DMSO (0.05, 0.1, 0.3, 0.5 and 1.0 mM) were placed in contact with MDPC-23 cells (5×10^4 cells/cm^2) for 24 h. Pure DMEM was used in the control group. Twelve replicates were prepared in each group, except for flow cytometry analysis (n=8). Viable cell number (Trypan Blue), cell metabolism (production of succinic dehydrogenase enzyme-SDH, MTT assay) and cell death by necrosis (flow cytometry) were evaluated as described before (Ribeiro et al. 2010, Aranha et al. 2011).

[2] = tested on: dentin collagenolytic enzymes; assay: Hydroxyproline release from demineralized dentin beams; format: biochemical
Experimental: Type I collagen contains about 10 mass % hydroxyproline (HYP), an amino acid almost non-existent in other proteins. Detection of HYP release form demineralized dentin beams was used to evaluate whether DMSO would be effective in inhibiting MMPs in dentin collagen matrix, using a method described in Carrilho et al. 2009. Seventy-six dentin beams (1 mm×1 mm×9 mm) were divided into four groups (n=19 per group) and demineralized. Each beam was individually incubated in a polypropylene tubes with 1 ml of medium containing 50 mmol/L HEPES, 5 mmol/L CaCl2 2H2O, 0.001 mmol/L ZnCl2, 150 mmol/L NaCl, and 3 mmol/L NaN3, pH 7.2, that ensures availability of Zn- and Ca-ions for MMP function. The control samples were incubated in a medium without DMSO: in two groups the beams were incubated with DMSO in medium with 0.001% and 0.01% concentrations. In one group, demineralized dentin beams were immersed in 5% DMSO for 15 minutes and then incubated in a medium without DMSO for the rest of the experiment. Tubes were incubated in a water-shaker bath at 37° C. for a week. Then the medium was completely removed and quantitated for HYP content according to the colorimetric absorbance method described by Jamall et al (1981). Fresh 1 mL of medium was replaced in each tube for additional three weeks of incubation, when the media was removed and analyzed for HYP content. HYP standards were prepared from a 1 mg/mL HYP stock solution in 50% isopropanol. The resulting amount of HYP (mg/mL) was used to estimate the percentage of solubilized (degraded) collagen assuming that 90% of the dry mass of demineralized dentin beams consisted of type I collagen and that 10 mass % of collagen is HYP (Carrilho et al. 2009).

MMP-2 [3] = target: T1, MMP-2 (Homo sapiens, UniProt P08253); assay: EnzChek Gelatinase/Collagenase Assay Kit; format: biochemical; conditions: 3% DMSO; APMA-activated MMP-2; 24 h incubation
T1 construct: made in house
T1 sequence (P08253 110-660): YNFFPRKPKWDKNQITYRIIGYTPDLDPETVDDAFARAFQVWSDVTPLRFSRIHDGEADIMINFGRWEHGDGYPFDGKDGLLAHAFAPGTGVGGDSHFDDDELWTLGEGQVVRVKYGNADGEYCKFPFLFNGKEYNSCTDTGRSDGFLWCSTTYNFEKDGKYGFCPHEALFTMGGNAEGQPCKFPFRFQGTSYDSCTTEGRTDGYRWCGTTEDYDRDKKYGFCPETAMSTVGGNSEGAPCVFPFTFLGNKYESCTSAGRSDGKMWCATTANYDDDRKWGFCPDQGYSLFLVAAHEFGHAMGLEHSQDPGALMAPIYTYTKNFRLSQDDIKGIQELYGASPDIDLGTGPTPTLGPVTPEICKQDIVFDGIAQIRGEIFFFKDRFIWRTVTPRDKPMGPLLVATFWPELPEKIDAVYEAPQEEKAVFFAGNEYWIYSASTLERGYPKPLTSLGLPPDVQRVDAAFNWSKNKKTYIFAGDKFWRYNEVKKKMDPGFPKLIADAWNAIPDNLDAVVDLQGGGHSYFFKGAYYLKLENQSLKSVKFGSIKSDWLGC
Experimental: (§2) EnzChek Gelatinase/Collagenase Assay Kit (Molecular Probes, Eugene, Oreg., USA) was used to detect the effect of DMSO on the gelatinolytic activities of MMP-2 and -9 according to manufacturer's protocol. Briefly, 3 ng of MMP-2 (purified from cell culture media), 3 ng MMP-9 (purified from cell culture media), and 5 ng of recombinant MMP-9 (Chemicon) were diluted into the reaction buffer (50 mM Tris-HCl, 150 mM NaCl, 5 mM CaCl2, 0.2 mM NaN3, pH 7.6) and incubated with quenched fluorescein-conjugated gelatin (50 μg/ml) and 0%, 0.01%, 0.1%, 0.5%, 1%, 2%, 3%, 4% or 5% of DMSO in a black-walled 96 well microplate at RT in dark. Fluorescent intensity indicating the gelatinolysis was measured at multiple time points with Fluoromax2/Micromax fluorometer (ISA Jobin Yvon-Spex, Edison, N.J., USA). Analyses were performed as quadruplicates. The relative intensities were calculated against 0% of DMSO.

MMP-2 [4] = assay: EnzChek Gelatinase/Collagenase Assay Kit; format: biochemical; conditions: 4 to 5% DMSO; non-activated (no APMA) and activated (APMA) MMP-2
Experimental: as §2

MDPC-23 cells [5] = assay: Cell death by necrosis (flow cytometry); format: cell-based; conditions: 24 h
Experimental: as §1

MDPC-23 cells [6] = assay: Cell metabolism (SDH production, MTT assay); format: cell-based; conditions: 24 h
Experimental: as §1

[7] = tested on: gelatinases MMP-2 and MMP-9; assay: Gelatin zymography; format: biochemical, human
Experimental: Gelatin zymography was performed in 10% SDS-PAGE containing 1 mg/ml labelled gelatin in a usual fashion (Invitrogen, Carlsbad, Calif., USA) (O'Grady et al. 1984). After the electrophoresis, SDS was removed by 2.5% Triton X-100 to renature the gelatinases. Gels were then incubated overnight at 37° C. in 50 mM Tris-HCl buffer (5 mM CaCl2, 1 μM ZnCl2, 0.02% NaN3, pH 7.5) zymography incubation buffer with 0%, 0.1%, 2.5%, 5%, 10% or 20% of DMSO to observe the effect of DMSO concentration on the MMP activity. The degradation of gelatin was visualized under UV light. Gels were also stained with 0.5% Coomassie Blue R-250. The intensities of the bands were quantified by ScionImage software (Scion Corporation, Frederick, Mass., USA). The analysis was done as triplicates, and relative amounts against 0% DMSO were calculated.

C[S+](C)[O-] [DMSO, dimethyl sulphoxide]
Cell number (viable cells, Trypan Blue) (MDPC-23 cells [1]; 0.05 mM DMSO): 3.7 (0.9) a
Cell number (viable cells, Trypan Blue) (MDPC-23 cells [1]; 0.1 mM DMSO): 4.3 (1.1) a
Cell number (viable cells, Trypan Blue) (MDPC-23 cells [1]; 0.3 mM DMSO): 4.1 (1.4) a
Cell number (viable cells, Trypan Blue) (MDPC-23 cells [1]; 0.5 mM DMSO): 4.1 (0.9) a
Cell number (viable cells, Trypan Blue) (MDPC-23 cells [1]; 1.0 mM DMSO): 4.1 (1.3) a
Number of cells vs control (MDPC-23 cells [1]; 0.05-1.0 mM DMSO, p>0.05): no differences
Cytotoxicity to odontoblast-like cells (MDPC-23 cells [1]; direct contact, 0.05-1.0 mM DMSO): not cytotoxic or cytophatic
HYP release into the medium ([2]; 0.001% DMSO in medium, 4-week incubation): significantly decreased
HYP release into the medium ([2]; 0.01% DMSO in medium, 4-week incubation): significantly decreased
HYP release into the medium ([2]; 15 minute immersion in 5% DMSO prior the 4-week incubation): significantly decreased
Demineralized dentin collagen degradation by matrix enzymes ([2]; DMSO (FIG. 14)): significant decrease in collagen degradation
Inhibition of MMP-2 gelatinolytic activity (MMP-2 [3]): statistically significant inhibition
Inhibition of MMP-2 gelatinolytic activity (MMP-2 [4]): theoretical maximum inhibition
% Cell Death (necrosis, flow cytometry) (MDPC-23 cells [5]; 0.05 mM DMSO): 1.2 (0.8-1.6) a %
% Cell Death (necrosis, flow cytometry) (MDPC-23 cells [5]; 0.1 mM DMSO): 1.3 (0.9-1.6) a %
% Cell Death (necrosis, flow cytometry) (MDPC-23 cells [5]; 0.3 mM DMSO): 1.2 (0.6-1.6) a %
% Cell Death (necrosis, flow cytometry) (MDPC-23 cells [5]; 0.5 mM DMSO): 1.3 (0.8-1.5) a %
% Cell Death (necrosis, flow cytometry) (MDPC-23 cells [5]; 1.0 mM DMSO): 1.3 (0.8-1.6) a %
Cell death by necrosis vs control (MDPC-23 cells [5]; 0.05-1.0 mM DMSO, p>0.05): no differences
Cell metabolism (SDH production, MTT assay) (MDPC-23 cells [6]; 0.05 mM DMSO): 2.343 (2.287-2.387) ab
Cell metabolism (SDH production, MTT assay) (MDPC-23 cells [6]; 0.1 mM DMSO): 2.468 (2.359-2.557) a
Cell metabolism (SDH production, MTT assay) (MDPC-23 cells [6]; 0.3 mM DMSO): 2.484 (2.399-2.520) a
Cell metabolism (SDH production, MTT assay) (MDPC-23 cells [6]; 0.5 mM DMSO): 2.478 (2.294-2.542) ab
Cell metabolism (SDH production, MTT assay) (MDPC-23 cells [6]; 1.0 mM DMSO): 2.410 (2.119-2.501) ab
Production of SDH enzyme vs control (MDPC-23 cells [6]; 0.05-1.0 mM DMSO, not concentration-dependent): Slight increase
Effect on gelatinase activity (disappearance of bands) ([7]; 0.1-20% DMSO in incubation buffer, recombinant human MMP-2 and MMP-9): inhibitory activity
MMP inhibition ([7]; 5% DMSO (FIG. 12, FIG. 13)): up to 75.3%
MMP inhibition ([7]; 20% DMSO (FIG. 12, FIG. 13)): up to 94.7%

— patent publication US20140050674A1, “Method for Improving Penetration or Long Term Adhesion of Compositions to Dental Tissues and Compositions Usable in Said Method” (University of Oulu, priority 2011, published 2014)
